Read-outs that look alike come from different tables or passages of the source.
How the values were obtained:
mice = assay: Mouse tail-flick test (analgesic activity); type: in vivo, mouse (male Charles River)
[1] = target: T1, K receptor (Kappa opioid receptor) (Cavia porcellus, UniProt P41144); assay: Receptor binding to K sites (tritiated Ethylketocyclazocine, guinea pig brain homogenate); settings: tritiated Ethylketocyclazocine with 100 nM DADLE and 100 nM DAGO, 25° C., 40 min, read-out: Receptor binding k (kj)
T1 construct: fresh guinea pig brain homogenate; from tissue; host or cells: guinea pig whole brain without cerebellum, homogenate
Protocol: (§1) Radio receptor binding to μ and K sites is performed on fresh guinea pig brain homogenate prepared according to Kosterlitz. (1981).
(§2) Whole brain without cerebellum is homogenized in 50 mM, Tris-buffer (pH 7.4 at 0° C.) and centrifuged at 49,000 ×g×10 min.
(§3) The pellet is then resuspended in the same buffer, incubated at 37° C. for 45 min. and centrifuged again.
(§4) 1.9 ml of the final homogenate (1:100 in Tris-pH 7.4, 0° C.) is used for the binding assay.
Binding to K sites (Magnan J., 1982)
The binding of tritiated Ethylketocyclazocine to brain homogenate is measured the in presence of 100 nanomolar D-Ala-D-LeuEnkephalin (DADLE) and 100 nanomolar DAGO, added to saturate the δ and μ opioid receptors respectively.
Final homogenate with solutions of the cold ligand and of the labelled ligand is incubated for 40 min. at 25° C., filtered through Whatman GF/C glass filter discs and washed.
The radioactivity bound to the filters is counted by liquid scintillation spectrophotometry.
MR 2266.500 nM is utilized to determine the saturable binding.
For the calculation of the kinetic parameters of the binding of labelled and unlabelled ligands, the equilibrium dissociation constant (KD), the inhibition constant (Ki) and the maximum number of binding sites (B max) are determined from saturation curves and competition experiments (Hill 1910; Scatchard 1949; Cheng and Prusoff 1973; Gillan et al. 1980). […]

μ receptor = μ receptor (Cavia porcellus, UniProt A0ACM8Q262); assay: Receptor binding to μ sites (3H-DAGO, guinea pig brain homogenate); settings: 25° C., 40 min, read-out: Receptor binding μ (kj)
Protocol: as §1, §2, §3, §4
Binding to μ sites (Magnan J., 1982)
^3 H [D-Ala^2, MePhe^4, Gly-ol^5 ] Enkephalin (^3 H--DAGO), an enkephalin analogue that binds selectively to μ receptor, is added to the biological substrate and incubated at 25° C. for 40 min., filtered through Whatman GF-C and washed with ice-cold Tris-buffer.
The filters are then dryed, solubilized in Filtercount and the radioactivity monitored. Non specific binding is determined in the presence of 10^-6 M Naloxone.
For the calculation of the kinetic parameters of the binding of labelled and unlabelled ligands, the equilibrium dissociation constant (KD), the inhibition constant (Ki) and the maximum number of binding sites (B max) are determined from saturation curves and competition experiments (Hill 1910; Scatchard 1949; Cheng and Prusoff 1973; Gillan et al. 1980).
A concentration of radioligand near KD is used in the binding assays evaluating our compounds.

[2] = sc, 0.5 h, s.c., reaction time recorded 30 min after dosing, % mice doubling initial time, read-out: Mouse tail-flick ED50 (s.c.)

μ receptor, sequence (A0ACM8Q262 1-400): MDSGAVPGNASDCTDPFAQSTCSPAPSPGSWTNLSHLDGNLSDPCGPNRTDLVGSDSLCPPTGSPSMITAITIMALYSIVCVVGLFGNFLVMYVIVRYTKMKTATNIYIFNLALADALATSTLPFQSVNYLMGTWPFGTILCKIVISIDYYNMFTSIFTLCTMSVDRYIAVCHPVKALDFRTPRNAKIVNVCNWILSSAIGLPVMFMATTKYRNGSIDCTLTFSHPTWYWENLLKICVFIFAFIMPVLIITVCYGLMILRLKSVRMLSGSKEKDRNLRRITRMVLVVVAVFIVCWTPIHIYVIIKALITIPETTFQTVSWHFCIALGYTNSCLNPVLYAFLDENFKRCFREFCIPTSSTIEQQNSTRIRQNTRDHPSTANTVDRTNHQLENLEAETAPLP
T1 sequence (P41144 whole entry): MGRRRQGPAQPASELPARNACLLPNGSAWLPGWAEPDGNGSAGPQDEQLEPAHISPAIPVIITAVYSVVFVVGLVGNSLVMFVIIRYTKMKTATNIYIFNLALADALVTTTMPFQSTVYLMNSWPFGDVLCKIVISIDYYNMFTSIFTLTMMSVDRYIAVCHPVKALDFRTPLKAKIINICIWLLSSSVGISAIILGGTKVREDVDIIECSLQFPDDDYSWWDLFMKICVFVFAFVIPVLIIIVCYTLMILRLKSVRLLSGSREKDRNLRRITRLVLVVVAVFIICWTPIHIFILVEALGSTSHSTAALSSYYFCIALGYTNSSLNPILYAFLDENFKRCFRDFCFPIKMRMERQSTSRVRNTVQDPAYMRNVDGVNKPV

| Compound | ED50 (mice; [2]) | Ki [1] | Ki (μ receptor) | ED50 (mice; po, read-out: Mouse tail-flick ED50 (p.o.)) |
| --- | --- | --- | --- | --- |
| CC(C1CCCCN1C(=O)Cc1ccc(Cl)c(Cl)c1)N1CCCC1 (single isomer, unassigned; diastereoisomer b) [Example 2, 1-(3,4-dichlorophenylacetyl)-2-[1-(1-pyrrolidinyl)ethylpiperidine]--Diastereoisomer B] | 4.12 mg/kg |  |  |  |
| CC(C1CCCCN1C(=O)Cc1ccc(Cl)c(Cl)c1)N(C)C.Cl (single isomer, unassigned; diastereoisomer b) [Example 4, 1-(3,4-dichlorophenylacetyl)-2-(1-dimethylaminoethyl) piperidine hydrochloride--Diastereoisomer B] | 0.41 mg/kg | 2.3 nM | 913 nM | 0.75 mg/kg |

— patent publication US4879300A, “Novel piperidine derivatives” (Dr. Lo. Zambeletti S.p.A., priority 1986, dated 1989)
